ChEMBL document CHEMBL1201862, “PubChem BioAssay data set” (2004)
Activity calls are given as the source filed them.

Tests used:
Format in all cases: functional
[1] = biological target: Calcium/calmodulin-dependent protein kinase type 1 (Homo sapiens, UniProt Q14012)
[2] = biological target: RAC-gamma serine/threonine-protein kinase (Homo sapiens, UniProt Q9Y243)
[3] = biological target: MAP kinase-activated protein kinase 2 (Homo sapiens, UniProt P49137);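 note: measured as one member of a kinome-wide kinase panel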
[4] = biological target: Mitogen-activated protein kinase 1 (Homo sapiens, UniProt P28482)
Ephrin type-A receptor 2 = Ephrin type-A receptor 2 (Homo sapiens, UniProt P29317);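 note: EPHA2 tested as one member of a kinome-wide kinase panel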
[5] = biological target: Mitogen-activated protein kinase 12 (Homo sapiens, UniProt P53778);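 note: measured as one member of a kinome-wide kinase profiling panel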
[6] = biological target: Receptor tyrosine-protein kinase erbB-2 (Homo sapiens, UniProt P04626); assay: Navigating the Kinome. Panel member name: ERBB2
Receptor tyrosine-protein kinase erbB-2, sequence (P04626 whole entry): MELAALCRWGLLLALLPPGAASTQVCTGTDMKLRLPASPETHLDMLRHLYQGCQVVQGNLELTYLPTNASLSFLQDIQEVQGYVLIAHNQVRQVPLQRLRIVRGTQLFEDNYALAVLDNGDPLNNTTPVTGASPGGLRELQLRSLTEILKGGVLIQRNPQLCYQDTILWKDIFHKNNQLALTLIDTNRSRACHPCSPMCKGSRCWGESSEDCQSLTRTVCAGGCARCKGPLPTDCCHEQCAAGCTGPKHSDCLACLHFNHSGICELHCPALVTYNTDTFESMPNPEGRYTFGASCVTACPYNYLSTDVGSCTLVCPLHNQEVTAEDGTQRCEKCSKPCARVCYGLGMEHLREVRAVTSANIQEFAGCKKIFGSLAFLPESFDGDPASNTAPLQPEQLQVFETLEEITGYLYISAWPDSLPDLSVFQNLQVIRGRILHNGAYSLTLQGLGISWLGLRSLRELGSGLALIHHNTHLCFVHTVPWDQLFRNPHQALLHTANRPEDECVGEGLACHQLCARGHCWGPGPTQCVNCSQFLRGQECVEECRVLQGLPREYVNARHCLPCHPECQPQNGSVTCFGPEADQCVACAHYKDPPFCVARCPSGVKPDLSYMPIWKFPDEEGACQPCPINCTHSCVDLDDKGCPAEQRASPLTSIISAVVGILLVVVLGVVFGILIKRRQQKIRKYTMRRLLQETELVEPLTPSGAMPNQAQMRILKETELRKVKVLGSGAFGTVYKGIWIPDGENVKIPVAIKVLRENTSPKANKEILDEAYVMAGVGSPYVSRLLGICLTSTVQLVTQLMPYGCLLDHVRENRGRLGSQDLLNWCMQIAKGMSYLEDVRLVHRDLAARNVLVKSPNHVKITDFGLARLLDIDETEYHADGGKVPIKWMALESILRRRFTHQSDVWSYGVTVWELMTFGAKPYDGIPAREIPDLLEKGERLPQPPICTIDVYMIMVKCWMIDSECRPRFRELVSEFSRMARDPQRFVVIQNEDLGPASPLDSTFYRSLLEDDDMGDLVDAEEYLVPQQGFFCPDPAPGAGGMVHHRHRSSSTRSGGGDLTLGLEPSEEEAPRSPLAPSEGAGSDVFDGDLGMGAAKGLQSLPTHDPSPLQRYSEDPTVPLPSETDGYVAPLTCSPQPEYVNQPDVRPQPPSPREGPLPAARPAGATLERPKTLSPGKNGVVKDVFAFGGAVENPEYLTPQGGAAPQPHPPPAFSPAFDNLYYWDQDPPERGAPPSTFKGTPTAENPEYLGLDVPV

[7] = biological target: MAP kinase-activated protein kinase 3 (Homo sapiens, UniProt Q16644);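 note: value comes from a kinome-wide profiling panel in which MAPKAPK3 is one of the panel members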
[8] = biological target: Serine/threonine-protein kinase MRCK alpha (Homo sapiens, UniProt Q5VT25)
[9] = biological target: Casein kinase I isoform delta (Homo sapiens, UniProt P48730);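 note: measured as one member (CSNK1D) of a kinome panel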
[10] = biological target: Serine/threonine-protein kinase PLK3 (Homo sapiens, UniProt Q9H4B4)
[11] = biological target: Vascular endothelial growth factor receptor 3 (Homo sapiens, UniProt P35916);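 note: value from a kinome-wide profiling panel, with FLT4 as the panel member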
Vascular endothelial growth factor receptor 3, sequence (P35916 whole entry): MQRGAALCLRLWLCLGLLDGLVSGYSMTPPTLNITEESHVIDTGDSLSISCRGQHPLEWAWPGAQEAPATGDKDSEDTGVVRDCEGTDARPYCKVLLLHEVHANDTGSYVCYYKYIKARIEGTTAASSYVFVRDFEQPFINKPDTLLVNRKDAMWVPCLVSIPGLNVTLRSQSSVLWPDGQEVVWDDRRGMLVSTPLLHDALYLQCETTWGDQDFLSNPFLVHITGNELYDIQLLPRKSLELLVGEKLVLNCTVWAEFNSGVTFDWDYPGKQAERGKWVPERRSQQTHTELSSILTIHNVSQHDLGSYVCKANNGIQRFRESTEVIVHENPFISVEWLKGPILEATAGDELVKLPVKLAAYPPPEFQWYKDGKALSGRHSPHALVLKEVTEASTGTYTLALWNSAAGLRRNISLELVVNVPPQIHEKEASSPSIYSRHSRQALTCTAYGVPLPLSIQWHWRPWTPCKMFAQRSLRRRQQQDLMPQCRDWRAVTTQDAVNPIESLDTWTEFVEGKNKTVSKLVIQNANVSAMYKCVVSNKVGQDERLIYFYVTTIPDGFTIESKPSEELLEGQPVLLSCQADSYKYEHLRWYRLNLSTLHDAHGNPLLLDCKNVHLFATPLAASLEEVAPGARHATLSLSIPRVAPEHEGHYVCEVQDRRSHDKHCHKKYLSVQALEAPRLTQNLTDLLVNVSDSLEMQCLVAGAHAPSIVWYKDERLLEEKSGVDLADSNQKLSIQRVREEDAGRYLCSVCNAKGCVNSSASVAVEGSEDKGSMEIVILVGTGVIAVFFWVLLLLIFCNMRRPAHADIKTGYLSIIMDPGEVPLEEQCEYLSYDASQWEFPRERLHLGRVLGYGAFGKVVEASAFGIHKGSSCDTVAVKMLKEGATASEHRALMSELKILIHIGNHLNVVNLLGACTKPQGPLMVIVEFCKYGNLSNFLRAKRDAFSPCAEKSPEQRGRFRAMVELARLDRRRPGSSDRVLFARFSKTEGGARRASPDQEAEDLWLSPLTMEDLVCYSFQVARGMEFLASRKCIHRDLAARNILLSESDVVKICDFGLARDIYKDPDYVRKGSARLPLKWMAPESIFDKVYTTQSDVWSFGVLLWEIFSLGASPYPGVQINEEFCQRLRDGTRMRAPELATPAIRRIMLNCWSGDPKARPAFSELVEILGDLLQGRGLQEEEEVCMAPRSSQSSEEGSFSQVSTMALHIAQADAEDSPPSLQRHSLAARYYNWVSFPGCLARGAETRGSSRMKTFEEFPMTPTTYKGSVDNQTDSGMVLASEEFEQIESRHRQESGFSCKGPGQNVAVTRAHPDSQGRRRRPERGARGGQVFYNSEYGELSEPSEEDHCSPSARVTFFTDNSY

[12] = biological target: Serine/threonine-protein kinase Chk1 (Homo sapiens, UniProt O14757);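 note: measured as one member of a kinome-wide kinase profiling panel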
[13] = biological target: Cyclin-dependent kinase 2 (Homo sapiens, UniProt P24941);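 note: CDK2 measured as one member of a broad kinome profiling panel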
[14] = biological target: Cyclin-dependent kinase 5 (Homo sapiens, UniProt Q00535);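 note: CDK5 measured as one member of a kinase profiling panel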
[15] = biological target: Protein kinase C gamma type (Homo sapiens, UniProt P05129)
[16] = biological target: Serine/threonine-protein kinase PLK1 (Homo sapiens, UniProt P53350);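 note: PLK1 measured as one member of a kinome-wide profiling panel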
Insulin receptor = Insulin receptor (Homo sapiens, UniProt P06213);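 note: insulin receptor kinase tested as one member of a kinome-wide kinase panel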
[17] = biological target: Inhibitor of nuclear factor kappa-B kinase subunit beta (Homo sapiens, UniProt O14920)
[18] = biological target: Cyclin-dependent kinase 1 (Homo sapiens, UniProt P06493);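 note: Kinome-wide panel profiling, with the target listed as panel member CDC2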
[19] = biological target: Serine/threonine-protein kinase Chk2 (Homo sapiens, UniProt O96017);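 note: CHEK2 entry within a kinome-wide screening panel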
[20] = biological target: Protein kinase C delta type (Homo sapiens, UniProt Q05655)
[21] = biological target: Hepatocyte growth factor receptor (Homo sapiens, UniProt P08581);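 note: kinase panel profiling across the kinome, with MET as the panel member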
[22] = biological target: Interleukin-1 receptor-associated kinase 4 (Homo sapiens, UniProt Q9NWZ3)
[23] = biological target: Non-receptor tyrosine-protein kinase TYK2 (Homo sapiens, UniProt P29597)
[24] = biological target: Serine/threonine-protein kinase PLK4 (Homo sapiens, UniProt O00444);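 note: PLK4 measured as one member of a kinome-wide kinase profiling panel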
[25] = biological target: Inhibitor of nuclear factor kappa-B kinase subunit alpha (Homo sapiens, UniProt O15111)
Inhibitor of nuclear factor kappa-B kinase subunit alpha, sequence (O15111 whole entry): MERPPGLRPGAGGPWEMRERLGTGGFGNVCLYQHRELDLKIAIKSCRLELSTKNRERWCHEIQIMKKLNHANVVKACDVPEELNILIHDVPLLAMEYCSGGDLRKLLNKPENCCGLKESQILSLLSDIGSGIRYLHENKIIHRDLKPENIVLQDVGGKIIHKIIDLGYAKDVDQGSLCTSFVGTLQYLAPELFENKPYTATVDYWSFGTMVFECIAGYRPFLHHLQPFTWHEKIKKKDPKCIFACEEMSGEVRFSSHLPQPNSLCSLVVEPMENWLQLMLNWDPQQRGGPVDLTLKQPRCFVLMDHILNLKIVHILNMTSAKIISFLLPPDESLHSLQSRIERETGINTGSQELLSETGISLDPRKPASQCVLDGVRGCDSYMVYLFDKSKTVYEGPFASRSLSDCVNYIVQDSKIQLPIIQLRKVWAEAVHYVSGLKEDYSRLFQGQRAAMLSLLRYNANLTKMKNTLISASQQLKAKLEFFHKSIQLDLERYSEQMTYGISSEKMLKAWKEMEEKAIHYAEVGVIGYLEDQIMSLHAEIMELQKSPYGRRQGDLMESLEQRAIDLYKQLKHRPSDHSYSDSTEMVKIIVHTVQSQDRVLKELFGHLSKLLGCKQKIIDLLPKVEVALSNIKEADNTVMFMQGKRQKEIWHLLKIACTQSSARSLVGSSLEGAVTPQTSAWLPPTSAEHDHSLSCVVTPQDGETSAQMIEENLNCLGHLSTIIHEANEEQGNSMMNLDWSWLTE

[26] = biological target: Serine/threonine-protein kinase D2 (Homo sapiens, UniProt Q9BZL6);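 note: measured against PRKD2 as one member of a kinome-wide kinase profiling panel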
Activated CDC42 kinase 1 = Activated CDC42 kinase 1 (Homo sapiens, UniProt Q07912); assay: Navigating the Kinome. Panel member name: ACK1
Activated CDC42 kinase 1, sequence (Q07912 whole entry): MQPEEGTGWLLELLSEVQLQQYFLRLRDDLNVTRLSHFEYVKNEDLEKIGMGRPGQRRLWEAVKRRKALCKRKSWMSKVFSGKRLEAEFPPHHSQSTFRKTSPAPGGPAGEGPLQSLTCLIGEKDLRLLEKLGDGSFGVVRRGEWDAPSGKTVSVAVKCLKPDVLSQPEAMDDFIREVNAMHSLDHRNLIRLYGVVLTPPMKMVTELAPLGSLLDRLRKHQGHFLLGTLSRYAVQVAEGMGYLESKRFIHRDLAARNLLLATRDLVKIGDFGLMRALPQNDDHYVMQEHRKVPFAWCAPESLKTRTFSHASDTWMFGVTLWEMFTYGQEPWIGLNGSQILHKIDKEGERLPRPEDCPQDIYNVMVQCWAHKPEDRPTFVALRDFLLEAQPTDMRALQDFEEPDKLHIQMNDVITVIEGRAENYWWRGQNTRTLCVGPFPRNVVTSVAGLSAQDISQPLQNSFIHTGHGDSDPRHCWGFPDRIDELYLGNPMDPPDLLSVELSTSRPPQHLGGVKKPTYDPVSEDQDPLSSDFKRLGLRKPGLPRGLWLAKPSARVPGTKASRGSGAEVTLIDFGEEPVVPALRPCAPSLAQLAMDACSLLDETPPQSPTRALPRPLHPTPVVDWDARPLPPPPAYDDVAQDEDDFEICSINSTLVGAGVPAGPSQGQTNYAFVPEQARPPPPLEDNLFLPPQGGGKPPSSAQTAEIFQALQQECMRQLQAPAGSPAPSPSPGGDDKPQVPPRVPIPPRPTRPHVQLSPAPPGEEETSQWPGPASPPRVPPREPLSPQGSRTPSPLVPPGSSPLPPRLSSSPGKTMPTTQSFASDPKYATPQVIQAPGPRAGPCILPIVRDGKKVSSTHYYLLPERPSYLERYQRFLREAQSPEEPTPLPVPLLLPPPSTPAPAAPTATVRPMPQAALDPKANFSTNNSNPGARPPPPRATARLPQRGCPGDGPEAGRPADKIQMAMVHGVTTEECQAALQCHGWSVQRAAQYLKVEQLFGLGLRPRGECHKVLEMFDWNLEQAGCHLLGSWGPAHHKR

[27] = biological target: Tyrosine-protein kinase receptor TYRO3 (Homo sapiens, UniProt Q06418);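 note: TYRO3 value obtained as one member of a kinome-wide profiling panel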
[28] = biological target: cAMP-dependent protein kinase catalytic subunit PRKX (Homo sapiens, UniProt P51817)
[29] = biological target: Protein kinase C theta type (Homo sapiens, UniProt Q04759); assay: Navigating the Kinome. Panel member name: PRKCQ
[30] = biological target: Macrophage-stimulating protein receptor (Homo sapiens, UniProt Q04912); assay: Navigating the Kinome. Panel member name: MST1R
[31] = biological target: Serine/threonine-protein kinase 17A (Homo sapiens, UniProt Q9UEE5)
Activin receptor type-1 = Activin receptor type-1 (Homo sapiens, UniProt Q04771); assay: Navigating the Kinome. Panel member name: ACVR1
[32] = biological target: Serine/threonine-protein kinase TAO1 (Homo sapiens, UniProt Q7L7X3)
[33] = biological target: Cyclin-dependent kinase 9 (Homo sapiens, UniProt P50750);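 note: value from the CDK9 entry of a kinome-spanning kinase panel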
[34] = biological target: Dual specificity protein kinase CLK2 (Homo sapiens, UniProt P49760)
[35] = biological target: Maternal embryonic leucine zipper kinase (Homo sapiens, UniProt Q14680)
Focal adhesion kinase 1 = Focal adhesion kinase 1 (Homo sapiens, UniProt Q05397);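 note: measured as one member of a kinome panel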
[36] = biological target: Tyrosine-protein kinase Lck (Homo sapiens, UniProt P06239);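 note: lck was assayed as one member of a kinase panel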
[37] = biological target: Cyclin-dependent kinase 8 (Homo sapiens, UniProt P49336); assay: Navigating the Kinome. Panel member name: CDK8
[38] = biological target: Mitogen-activated protein kinase 14 (Homo sapiens, UniProt Q16539);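 note: part of a kinome-wide panel, MAPK14 entry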
[39] = biological target: Dual specificity mitogen-activated protein kinase kinase 2 (Homo sapiens, UniProt P36507); assay: Navigating the Kinome. Panel member name: MAP2K2
[40] = biological target: Calcium/calmodulin-dependent protein kinase type II subunit alpha (Homo sapiens, UniProt Q9UQM7); assay: Navigating the Kinome. Panel member name: CAMK2A
[41] = biological target: Casein kinase I isoform alpha (Homo sapiens, UniProt P48729)
[42] = biological target: Cell division cycle 7-related protein kinase (Homo sapiens, UniProt O00311);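 note: value obtained from a kinome-wide kinase panel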

Measured: Ki

RAC-gamma serine/threonine-protein kinase, sequence (Q9Y243 whole entry): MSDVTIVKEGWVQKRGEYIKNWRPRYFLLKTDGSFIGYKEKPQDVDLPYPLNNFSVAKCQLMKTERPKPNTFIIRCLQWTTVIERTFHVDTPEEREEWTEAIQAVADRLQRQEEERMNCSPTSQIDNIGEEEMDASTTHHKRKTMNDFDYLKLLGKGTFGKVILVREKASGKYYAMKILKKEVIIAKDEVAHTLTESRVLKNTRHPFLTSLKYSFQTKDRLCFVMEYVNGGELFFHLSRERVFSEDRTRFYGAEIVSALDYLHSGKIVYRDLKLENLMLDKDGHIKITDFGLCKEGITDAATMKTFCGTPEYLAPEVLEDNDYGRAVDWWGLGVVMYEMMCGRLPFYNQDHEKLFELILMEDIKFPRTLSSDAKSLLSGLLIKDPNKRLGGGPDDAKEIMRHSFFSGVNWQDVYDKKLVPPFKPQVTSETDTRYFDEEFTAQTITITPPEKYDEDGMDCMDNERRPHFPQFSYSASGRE

NC(COc1cncc(-c2cc3ccncc3s2)c1)Cc1c[nH]c2ccccc12 (configuration not stated)
inactive: [3] > 7940 nM | Ephrin type-A receptor 2 > 3160 nM | [6] > 1580 nM | [7] > 10000 nM | [16] > 7940 nM | Insulin receptor > 5010 nM | [17] > 3160 nM | [21] > 3160 nM | [23] > 2000 nM | [25] > 3980 nM
active: [1] 3160 nM | [2] 25.1 nM | [4] 251 nM | [5] 2000 nM | [8] 200 nM | [9] 794 nM | [10] 794 nM | [11] 100 nM | [12] 3980 nM | [13] 158 nM | [14] 316 nM | [15] 398 nM | [18] 158 nM | [19] 398 nM | [20] 50.1 nM | [22] 1580 nM | [24] 631 nM | [26] 316 nM

CN(C)C1CCC(Nc2nc(Cl)cc(-c3c[nH]c4ncccc34)n2)CC1 (configuration not stated)
active: [28] 25.1 nM | [29] 7.94 nM | [30] 79.4 nM | [31] 126 nM | Activin receptor type-1 2510 nM | [33] 5.01 nM | [34] 39.8 nM | [35] 3.16 nM | [36] 5010 nM | [37] 15.8 nM | [39] 316 nM | [40] 398 nM | [41] 251 nM | [42] 0.316 nM
inactive: Activated CDC42 kinase 1 > 3980 nM | [27] > 3160 nM | [32] > 6310 nM | Focal adhesion kinase 1 > 6310 nM | [38] > 3980 nM
